Results as given in patent US20230140216A1, “COMBINATION THERAPY FOR TREATING MPS1” (GAIN THERAPEUTICS SA, priority 2020, published 2023).

Assays:
[1] = biological target: T1, Recombinant human α-L-iduronidase protein (Homo sapiens, UniProt P35475); experiment: Differential scanning fluorimetry (DSF) thermal stabilization; type: binding; settings: ΔTm class;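 also: Classes count stabilization of α-L-iduronidase despite the GALC label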
T1 construct: purchased R&D
T1 sequence (P35475 28-653): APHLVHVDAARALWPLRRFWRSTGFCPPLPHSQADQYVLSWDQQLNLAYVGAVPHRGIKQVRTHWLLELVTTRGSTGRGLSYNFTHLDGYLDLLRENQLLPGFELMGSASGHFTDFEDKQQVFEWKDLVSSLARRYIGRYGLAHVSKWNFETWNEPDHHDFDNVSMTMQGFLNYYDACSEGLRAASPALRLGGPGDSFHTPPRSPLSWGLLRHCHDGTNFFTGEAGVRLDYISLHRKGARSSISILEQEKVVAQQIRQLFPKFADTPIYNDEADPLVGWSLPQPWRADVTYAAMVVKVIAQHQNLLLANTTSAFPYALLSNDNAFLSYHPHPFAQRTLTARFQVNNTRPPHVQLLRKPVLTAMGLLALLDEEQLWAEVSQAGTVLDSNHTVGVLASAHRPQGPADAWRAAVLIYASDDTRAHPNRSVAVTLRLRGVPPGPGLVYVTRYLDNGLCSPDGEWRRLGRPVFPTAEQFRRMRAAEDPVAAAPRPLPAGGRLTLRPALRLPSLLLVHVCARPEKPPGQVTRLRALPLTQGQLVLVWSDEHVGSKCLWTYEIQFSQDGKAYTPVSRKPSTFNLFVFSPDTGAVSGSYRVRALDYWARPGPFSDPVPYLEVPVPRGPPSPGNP
Method in brief: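 Purified recombinant human α-L-iduronidase (final 0.75 µM) in 100 mM Hepes, 20 mM MgCl2, pH 7 with SYPRO Orange was heated with compounds (final 1% DMSO). Thermal denaturation was followed by probe fluorescence during a temperature ramp, and stabilization expressed as ΔTm, binned into four categories (A–D).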

[2] = biological target: T2, ALDURAZYME (laronidase, IDUA) (Homo sapiens, UniProt P35475); experiment: Denaturation prevention assay with ALDURAZYME; type: biochemical; settings: 30 µM compound, pH 7, 37° C.
T2 construct: purchased ALDURAZYME®
T2 sequence (P35475 26-653 limits assumed): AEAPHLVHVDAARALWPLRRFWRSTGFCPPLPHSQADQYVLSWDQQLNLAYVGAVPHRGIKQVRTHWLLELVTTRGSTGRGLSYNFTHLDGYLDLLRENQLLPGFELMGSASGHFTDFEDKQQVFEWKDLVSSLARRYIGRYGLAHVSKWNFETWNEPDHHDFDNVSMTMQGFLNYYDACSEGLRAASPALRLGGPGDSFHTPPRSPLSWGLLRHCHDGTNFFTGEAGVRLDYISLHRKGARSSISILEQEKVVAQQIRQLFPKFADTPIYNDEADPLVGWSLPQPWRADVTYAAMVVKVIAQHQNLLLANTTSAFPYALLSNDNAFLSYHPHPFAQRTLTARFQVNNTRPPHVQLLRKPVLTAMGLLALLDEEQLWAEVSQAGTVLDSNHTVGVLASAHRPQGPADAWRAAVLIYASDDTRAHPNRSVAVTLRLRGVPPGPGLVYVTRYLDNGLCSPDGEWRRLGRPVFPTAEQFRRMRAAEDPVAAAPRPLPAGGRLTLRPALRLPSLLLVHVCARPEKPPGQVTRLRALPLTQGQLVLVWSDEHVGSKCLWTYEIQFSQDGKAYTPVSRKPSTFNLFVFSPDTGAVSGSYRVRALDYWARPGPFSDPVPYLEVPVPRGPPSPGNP
Procedure: (§1) Briefly, recombinant human α-L-iduronidase protein (obtained in the Institute of Biotechnology and Biomedicine in the UAB, Bellaterra, Spain) was combined at a final concentration of 1 µM with 5X of SYPRO Orange and 30 µM of the corresponding compound in a final reaction volume of 25 µL in 100 mM Hepes 20 mM MgCl2 pH 7 buffer. Reactions were incubated at 37° C. and SYPRO Orange fluorescence intensity was monitored at the indicated time points using Glomax® Discover Microplate Reader from Promega (Madison, WI, USA).
Compounds of Examples 8, 39, 40, 54, and 72 were also tested as described above, except that ALDURAZYME® was used instead of the recombinant human α-L-iduronidase protein (obtained in the Institute of Biotechnology and Biomedicine in the UAB, Bellaterra, Spain).

[3] = biological target: T3, Recombinant human α-L-iduronidase protein (Homo sapiens, UniProt P35475); experiment: Denaturation prevention assay in neutral pH buffer; type: biochemical; settings: 500 µM reference compound, pH 7, 37° C.
T3 construct: Ala26-Pro653 with a C-terminal 10_His tag; 10xHis (C); host or cells: HEK293f (stated in b1366 for the UAB protein)
T3 sequence (P35475 26-653): T2 sequence (P35475 26-653 limits assumed)
Procedure: The capacity of Compounds of the Disclosure to stabilize α-L-iduronidase in neutral pH buffer was assessed using the denaturation prevention assay.
as §1
The compound referred to as Compound A throughout this specification is the compound of Example 8 described above. […] (T=37° C.).

SMILES	prevention of IDUA denaturation [2]	DSF Activity range ([1]; synthetized Examples 38-94)	also measured
CCN(CC(=O)Nc1c(Cl)cccc1Cl)Cc1nc2ccsc2c(=O)[nH]1 [Example 8, N-(2,6-dichlorophenyl)-2-(ethyl((4-oxo-3,4-dihydrothieno[3,2-d]pyrimidin-2-yl)methyl)amino)acetamide]	prevent IDUA denaturation	–	DSF Activity range ([1]; commercially available Examples 8-37): A (ΔTm GALC > 1 is shown as A)
Cc1csc2c(=O)[nH]c(CN(C)CC(=O)N3CCc4ccccc43)nc12 [Example 39]	prevent IDUA denaturation	B (ΔTm GALC between 0.5 and 1 is shown as B)	–
Cc1csc2c(=O)[nH]c(CN(C)CC(=O)N(C)c3ccc(Cl)c(Cl)c3)nc12 [Example 40, 2-(N-((3,4-dihydro-7-methyl-4-oxothieno[3,2-d]pyrimidin-2-yl)methyl)-N-methylamino)-N-(3,4-dichlorophenyl)-N-methylacetamide]	prevent IDUA denaturation	B (ΔTm GALC between 0.5 and 1 is shown as B)	–
CCCN(CC(=O)N(C)c1ccccc1Cl)Cc1nc2cc(C)sc2c(=O)[nH]1 [Example 54]	prevent IDUA denaturation	B (ΔTm GALC between 0.5 and 1 is shown as B)	–
CN(CC(=O)N1CCc2ccccc21)Cc1nc2cc(F)ccc2c(=O)[nH]1 [Example 72, 7-fluoro-2-(((2-(indolin-1-yl)-2-oxoethyl)(methyl)amino)methyl)quinazolin-4(3H)-one]	prevent IDUA denaturation	B (ΔTm GALC between 0.5 and 1 is shown as B)	–
Cc1ccc2c(=O)[nH]c(CN(C)CC(=O)N(C)c3ccc(Cl)c(Cl)c3)nc2c1 [Example 88, 2-(N-((3,4-dihydro-7-methyl-4-oxoquinazolin-2-yl)methyl)-N-methylamino)-N-(3,4-dichlorophenyl)-N-methylacetamide]	–	B (ΔTm GALC between 0.5 and 1 is shown as B)	–
Cc1ccc2nc(CN(C)CC(=O)N(C)c3ccc(Cl)c(Cl)c3)[nH]c(=O)c2c1 [Example 89, 2-(N-((3,4-dihydro-6-methyl-4-oxoquinazolin-2-yl)methyl)-N-methylamino)-N-(3,4-dichlorophenyl)-N-methylacetamide]	–	B (ΔTm GALC between 0.5 and 1 is shown as B)	–
CN(CC(=O)N1Cc2ccccc2C1)Cc1nc2c(cnn2C)c(=O)[nH]1 [Example 90]	–	C (ΔTm GALC between 0.1 and 0.5 is shown as C)	–
CN(CC(=O)N1CCc2ccccc21)Cc1nc2c(cnn2C)c(=O)[nH]1 [Example 91]	–	B (ΔTm GALC between 0.5 and 1 is shown as B)	–
CN(CC(=O)N(C)c1ccccc1Cl)Cc1nc2c(cnn2C)c(=O)[nH]1 [Example 92]	–	B (ΔTm GALC between 0.5 and 1 is shown as B)	–
CCN(CC(=O)N(C)c1c(Cl)cccc1Cl)Cc1nc2c(cnn2C)c(=O)[nH]1 [Example 93, 2-(N-ethyl-N-((4,5-dihydro-l-methyl-4-oxo-1H-pyrazolo[3,4-d]pylimidin-6-yl)methyl)amino)-N-(2,6-dichlorophenyl)-N-methylacetamide]	–	C (ΔTm GALC between 0.1 and 0.5 is shown as C)	–
CN(CC(=O)N(C)c1cccc(F)c1)Cc1nc2c(cnn2C)c(=O)[nH]1 [Example 94]	–	B (ΔTm GALC between 0.5 and 1 is shown as B)	–
O=C[C@H](O)[C@@H](O)[C@H](O)[C@@H](O)C(=O)O [L-iduronic acid, reference compound]	–	–	prevention of pH-induced IDUA denaturation [3]: minimal effect
